Measurements taken from PMC7797070 (Nucleic Acids Research, 2020).

Columns and labels:
[1] = target: B. subtilis Rel (full-length) (Bacillus subtilis, UniProt O54408); assay: 3H-; format: biochemical; conditions: 0.3 mM labelled compound; 1 mM ATP; 5 mM Mg2+; pH 7.5, 37 °C
[2] = target: T1, E. coli RelA (full-length) (Escherichia coli, UniProt P0AG20); assay: 3H-; format: biochemical; conditions: labelled compound; 1 mM ATP; 100 μM ppGpp or pppGpp added; 37 °C
T1 sequence (P0AG20 1-744): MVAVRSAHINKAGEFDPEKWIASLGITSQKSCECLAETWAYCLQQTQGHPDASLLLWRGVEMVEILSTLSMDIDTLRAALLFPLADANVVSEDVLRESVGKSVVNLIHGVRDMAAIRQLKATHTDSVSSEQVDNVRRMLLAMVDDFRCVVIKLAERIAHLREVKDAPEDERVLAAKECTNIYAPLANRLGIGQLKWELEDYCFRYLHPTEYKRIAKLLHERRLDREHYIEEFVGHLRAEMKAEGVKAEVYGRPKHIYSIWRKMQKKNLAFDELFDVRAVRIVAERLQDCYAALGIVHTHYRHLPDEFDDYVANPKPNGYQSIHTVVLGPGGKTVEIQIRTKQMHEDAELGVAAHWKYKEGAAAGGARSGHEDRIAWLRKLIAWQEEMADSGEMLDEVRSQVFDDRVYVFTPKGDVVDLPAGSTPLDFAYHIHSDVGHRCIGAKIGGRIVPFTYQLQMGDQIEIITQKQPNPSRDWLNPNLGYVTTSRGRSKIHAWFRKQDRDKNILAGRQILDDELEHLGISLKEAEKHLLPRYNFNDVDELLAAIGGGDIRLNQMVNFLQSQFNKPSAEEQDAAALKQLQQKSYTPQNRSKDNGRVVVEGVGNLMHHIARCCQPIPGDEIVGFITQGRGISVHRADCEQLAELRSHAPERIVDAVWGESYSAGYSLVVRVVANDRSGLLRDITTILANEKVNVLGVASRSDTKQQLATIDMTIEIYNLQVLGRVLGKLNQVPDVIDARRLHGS

[3] = target: T2, RelA^NTD (E. coli RelA NTD, 1-385) (Escherichia coli, UniProt P0AG20); assay: isothermal titration calorimetry; format: binding
T2 sequence (P0AG20 1-385): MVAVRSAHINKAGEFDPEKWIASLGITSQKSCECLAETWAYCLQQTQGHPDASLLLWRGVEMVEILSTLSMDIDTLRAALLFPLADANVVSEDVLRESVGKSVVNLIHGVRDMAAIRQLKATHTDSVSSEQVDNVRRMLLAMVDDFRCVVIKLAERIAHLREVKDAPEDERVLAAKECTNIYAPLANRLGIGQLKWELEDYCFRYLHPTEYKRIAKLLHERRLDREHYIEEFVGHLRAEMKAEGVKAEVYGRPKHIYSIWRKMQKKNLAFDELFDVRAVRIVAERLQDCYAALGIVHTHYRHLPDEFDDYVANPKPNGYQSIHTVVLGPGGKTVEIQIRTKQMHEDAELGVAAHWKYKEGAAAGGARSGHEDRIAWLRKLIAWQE

[4] = target: Rel^NTD (B. subtilis Rel NTD, 1-373) (Bacillus subtilis, UniProt O54408); assay: isothermal titration calorimetry; format: binding
Chain of Rel^NTD (B. subtilis Rel NTD, 1-373) (O54408 1-373): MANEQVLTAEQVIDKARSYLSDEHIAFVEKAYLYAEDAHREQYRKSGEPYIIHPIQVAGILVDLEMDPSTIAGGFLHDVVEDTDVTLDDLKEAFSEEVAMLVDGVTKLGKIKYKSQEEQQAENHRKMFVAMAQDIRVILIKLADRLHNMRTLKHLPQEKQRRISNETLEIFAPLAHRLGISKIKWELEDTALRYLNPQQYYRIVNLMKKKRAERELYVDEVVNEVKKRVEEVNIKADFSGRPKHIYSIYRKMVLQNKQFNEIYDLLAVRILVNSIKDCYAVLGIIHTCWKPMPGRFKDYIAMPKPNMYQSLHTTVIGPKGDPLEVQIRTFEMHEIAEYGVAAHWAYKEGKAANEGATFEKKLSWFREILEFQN

Chain of B. subtilis Rel (full-length) (O54408 whole entry): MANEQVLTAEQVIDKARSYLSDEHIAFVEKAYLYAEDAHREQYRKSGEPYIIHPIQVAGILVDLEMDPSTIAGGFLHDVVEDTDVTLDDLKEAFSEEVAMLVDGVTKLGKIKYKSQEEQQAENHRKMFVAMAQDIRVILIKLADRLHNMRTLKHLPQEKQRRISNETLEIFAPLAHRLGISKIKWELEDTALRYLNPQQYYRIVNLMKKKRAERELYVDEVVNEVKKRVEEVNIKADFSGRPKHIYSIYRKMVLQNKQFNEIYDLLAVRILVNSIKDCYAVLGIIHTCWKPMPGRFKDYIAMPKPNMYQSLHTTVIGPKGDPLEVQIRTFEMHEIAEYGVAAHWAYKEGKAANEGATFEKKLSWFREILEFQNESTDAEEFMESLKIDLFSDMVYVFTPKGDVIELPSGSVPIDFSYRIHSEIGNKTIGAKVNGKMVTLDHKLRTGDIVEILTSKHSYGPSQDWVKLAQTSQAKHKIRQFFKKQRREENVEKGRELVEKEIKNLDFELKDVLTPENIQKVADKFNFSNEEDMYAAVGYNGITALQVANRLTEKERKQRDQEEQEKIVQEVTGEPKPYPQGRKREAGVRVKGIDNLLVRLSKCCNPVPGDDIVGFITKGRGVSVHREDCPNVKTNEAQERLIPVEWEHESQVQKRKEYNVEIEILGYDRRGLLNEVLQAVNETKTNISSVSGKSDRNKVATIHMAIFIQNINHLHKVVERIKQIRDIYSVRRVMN

Nc1nc2c(ncn2[C@@H]2O[C@H](COP(=O)(O)OP(=O)(O)OP(=O)(O)O)[C@@H](O)[C@H]2O)c(=O)[nH]1 [GTP]
3H-(p)ppGpp synthesis assay, TLC and scintillation counting [1]: B. subtilis Rel is moderately more efficient in converting GTP to pppGpp

Nc1nc2c(ncn2[C@@H]2O[C@H](COP(=O)(O)OP(=O)(O)O)[C@@H](O)[C@H]2O)c(=O)[nH]1 [GDP]
3H-(p)ppGpp synthesis assay, TLC and scintillation counting [2]: the ppGpp alarmone is produced in situ from 3H-GDP

Nc1nc2c(ncn2[C@@H]2O[C@H](COP(=O)(O)OP(=O)(O)OP(=O)(O)O)[C@@H](OP(=O)(O)OP(=O)(O)O)[C@H]2O)c(=O)[nH]1 [pppGpp]
Kd [3]: 6.9 ± 0.9 µM | Kd [4]: 10.6 ± 0.9 µM
